From paper PMC3849192, “A Simple Method for Assessing Free Brain/Free Plasma Ratios Using an In Vitro Model of the Blood Brain Barrier” (PLoS ONE, 2013)

Test: Brain microdialysis, free brain and plasma concentration-time profiles
Assay type: in vivo
Details: male, Wistar, sc, rat, 30 µmol/kg s.c., read-out: Cu,br/Cu,pl in microdialysis
Description: Adult male Wistar rats (280–350 g; Harlan, Horst, The Netherlands) were used for the experiments.
Rats were anesthetized using isoflurane 2% and O2. Before the surgery, Fynadine (1 mg/kg s.c.) was administered for analgesia during surgery and recovery. A mixture of Marcaine and adrenaline was used for local anesthesia on the head. Implantation of a microdialysis probe into the brain and a catheter into the right jugular vein was performed in the same surgical procedure. After surgery animals were housed individually (cages 30×30×40 cm), food and water was ad libitum available. Surgery was carried out at least 24 hours before the start of the experiments.
Each animal was placed into a stereotaxic frame (Kopf instruments, USA). A non-metal guide cannula with a MetaQuant probe (MQ 6/4, regenerated cellulose membrane, 4 mm exposed surface, Brainlink, The Netherlands) was implanted with in the prefrontal cortex (PFC), its tip at the following coordinates: AP = 3.4 mm (to bregma), lateral 0.8 mm (to midline), ventral −5.0 mm (to dura) with Toothbar set at −3.3 mm, according to the atlas of Paxinos and Watson (1982). […]
To test whether probe recoveries were sufficiently high to enable quantitative measurements of brain extracellular concentrations in the in vivo microdialysis experiments, each of the compounds was subjected to an in vitro recovery test. […]

CN1CCN(C2=Nc3cc(Cl)ccc3Nc3ccccc32)CC1 [Clozapine]
Kp at 30 min (at 30 min): 0.04
Kp at 240 min (at 240 min): 1.71
